The text below walks through data of PMC12301034, “Design and Synthesis of Boronic Chalcones with Dual Anticancer and Anti-Inflammatory Activity” (Molecules, 2025).

Data set [1] has as its system SCC-25 cells. Briefly: Annexin V-FITC/PI apoptosis/necrosis assay. Type of data set: cell-based, human. To be noted: SCC-25, 44.3 μM, 24 h. The method, then: For the assessment of the type of cell death, the treatment groups were 44.3 μM, 22.1 μM, and 9.45 μM compound 5, and the negative control without any treatment (only DMEM medium). Then, after 24 h of treatment, cell suspensions of 1 × 10^6 mL^–^1 (SCC-25) of each experimental condition were labeled, and the assay was performed according to the manufacturer’s protocol with the FITC Annexin V/Dead Cell Apoptosis Kit (Life Technologies, Eugene, OR, USA). Annexin V-FITC conjugated (510 nm) and propidium iodide (PI, 610 nm) fluorescence intensity were detected by automatic reading with the Countess™ II FL Automated Cell Counter (Life Technologies, Carlsbad, CA, USA). The cell population was calculated as a percentage of apoptotic cells labeled only with annexin V-FITC conjugated (green), necrotic cells labeled only as PI (red), and late apoptotic/necrotic cells (green and red).

The test system of another data set is IL-8. As to the kind of experiment: Anti-inflammatory assay, IL-8 in LPS-stimulated THP-1 cells (CBA). Type of data set: cell-based, human. The conditions noted are these: 2 and 4 µg/mL, 24 h. The method, then:
For this assay, THP-1 (BCRJ cód. 0234) cells were cultured in Roswell Park Memorial Institute (RPMI-1640, Sigma-Aldrich; Saint Louis, MO, USA) media supplemented with 2 mM L-glutamine, 1 mM sodium pyruvate, 1.50 g/L of sodium bicarbonate, and 10% fetal bovine serum. For obtaining Macrophage-like cells, 250,000 cells per well were plated in a 24-well cell culture plate. A total of 20 ng/mL of Forbol 12-miristato-13-acetato (PMA) was added to each well, and the cells were incubated for 48 h at 37 °C with 5% CO2. After the 48 h, the wells were washed with 1X PBS, and fresh RPMI-1640 media was added. The cells were then incubated for 24 h at 37 °C and 5% CO2. For the cell’s stimulations, after the 24 h, the well was washed with PBS and fresh RPMI1640 media without fetal bovine serum added. For the positive controls of the assay, 3 wells were stimulated with LPS (1 ng/µL) diluted in the same volume and media used for the drugs stimulation. Two different concentrations (2 and 4 µg/mL) were evaluated for each molecule, which were determined to be non-cytotoxic through a cell viability assay. After a 24 h period, the supernatant was removed and used in the cytokine quantification assay. A kit for inflammatory cytokines, BD® Cytometric Bead Array CBA Human Inflammatory, was employed for this assay, containing the following human cytokines: IL-8, IL-1β, IL-6, and TNF. […]

A short description of data set [2]: Metabolic stability in human liver microsomes. Type of data set: in vitro ADME. On the procedure:
(§1) The metabolic stability of test compounds and controls [imipramine (Sigma-Aldrich, St. Louis, MO, USA), verapamil (Sigma-Aldrich, St. Louis, MO, USA), and warfarin (Sigma-Aldrich, St. Louis, MO, USA)] were assessed using human pooled liver human microsomes (20 mg/mL) (GIBCO, Frederick, MD, USA) and pooled liver CD1 mouse microsomes (20 mg/mL) (GIBCO, Frederick, MD, USA). […] Microsomal suspensions were thawed and diluted in phosphate buffer to obtain a final concentration of 0.25 mg/mL. A solution of NADPH (Sigma-Aldrich, St. Louis, MO, USA) at […] was also prepared in phosphate buffer. […] The plate was incubated at 37 °C under shaking (100 rpm). […] The reactions were stopped by adding quenching solution (75 μL) consisting of acetonitrile:methanol (1:1) with an internal standard (50 nM). Samples were centrifuged (3500 rpm, 30 min) to remove precipitated microsomal proteins, and the supernatant fractions were analyzed by an LCMS-8045 system (Shimazu, Kyoto, Japan). The chromatographic analysis was performed using a Supelco Ascentis Express C18 column (3 cm × 2.1 mm, 5 μm). The mobile phases consisted of water + 0.1% formic acid (A) and acetonitrile + 0.1% formic acid (B). […] The run time was 2 min, with a sample injection volume of 10 μL and a flow rate of 0.7 mL/min. Metabolic stability was assessed by calculating the peak area ratios (analyte/internal standard) and converting them into the percentage of the compound remaining, using the area ratio at time 0 as 100%.

Data set [3] is described as follows: Metabolic stability in mouse (CD-1) liver microsomes. Type of data set: in vitro ADME. On the procedure: as §1
On the technique in general: Microsomes from liver hold many membrane-bound enzymes, among them those of drug oxidation.

The subject of data set [4] is SCC-25 cells. Briefly: Microscopy of cells after incubation with compound. Type of data set: cell-based, human. To be noted: 24 h of incubation, 9.45 μM, SCC-25 vs NOK-si.
Data set [5] in a line: Partition coefficient (Log P), OECD 117 HPLC method.

Entries after “also recorded” stand apart in the source; their conditions may differ.

As usually defined, the chromatographic logP is lipophilicity estimated from chromatographic retention. Low readings indicate a more hydrophilic compound, high ones a more lipophilic compound. On to `COc1cccc(C(=O)/C=C/c2cccc(B(O)O)c2)c1` [Compound 5, (E)-(3-(3-(3-methoxyphenyl)-3-oxoprop-1-en-1-yl)phenyl)boronic acid], for which the viability at 44.3 µM in the data set on SCC-25 cells [1] (Homo sapiens, read-out: proportion of viable cells) is below 5%. Moreover, the “type of cell death” value in the data set on SCC-25 cells [1] (22.1 μM and 9.45 μM) was “necrosis; also recorded: predominantly induces necrotic cell death”. Further, the “reduction of IL-8 levels” value in the data set on IL-8 is “effectively reduced cytokine levels”. Besides, in data set [2], the “intrinsic clearance (Clint) in HLM” value is “high clearance”. Moreover, the microsomal CLint at 0.51 μM in data set [2] (human, microsomes, pH 7.4) amounted to 56.8 µL/min/mg; in data set [2] (human, pooled liver microsomes, pH 7.4, read-out: intrinsic clearance (Clint) in HLM), 77 µL/min/mg; in data set [3] (CD-1, mouse, microsomes, pH 7.4), 36 µL/min/mg. Further, the half-life at 0.51 μM stood at 48.8 min in data set [2] (human, pooled liver microsomes, pH 7.4, read-out: Human Liver Microsome (HLM) T1/2) and 56.8 min in data set [3] (CD-1, mouse, pooled liver microsomes, pH 7.4, read-out: Mouse Liver Microsome (MsLM) T1/2). Further, in data set [3] (mouse), the “Mouse Liver Microsome (MsLM) T1/2” value is recorded as 77.02 min. Besides, the morphological alterations result in the data set with SCC-25 cells [4] is given as “morphological alterations suggesting cell death features”. In data set [5], the chromatographic logP came out at 2.92.
